Legend:
[1] = biological target: GDP-bound NRAS wild-type protein (Homo sapiens, UniProt P01111); experiment: Binding to NRAS by surface plasmon resonance (SPR), Single Cycle Kinetics; conditions: KD ratio, GDP-bound NRAS wild-type vs GDP-bound KRAS wild-type, SPR
[2] = biological target: GDP-bound HRAS wild-type protein (Homo sapiens, UniProt P01112); experiment: Binding to HRAS by surface plasmon resonance (SPR), Single Cycle Kinetics; conditions: KD ratio, GDP-bound HRAS wild-type vs GDP-bound KRAS wild-type, SPR
Sequence of GDP-bound HRAS wild-type protein (P01112 whole entry): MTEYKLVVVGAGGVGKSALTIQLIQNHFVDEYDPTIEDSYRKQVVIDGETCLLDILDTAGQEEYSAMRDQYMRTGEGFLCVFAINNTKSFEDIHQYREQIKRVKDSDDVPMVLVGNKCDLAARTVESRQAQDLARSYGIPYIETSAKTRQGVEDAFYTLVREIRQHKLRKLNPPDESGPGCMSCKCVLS

Sequence of GDP-bound NRAS wild-type protein (P01111 whole entry): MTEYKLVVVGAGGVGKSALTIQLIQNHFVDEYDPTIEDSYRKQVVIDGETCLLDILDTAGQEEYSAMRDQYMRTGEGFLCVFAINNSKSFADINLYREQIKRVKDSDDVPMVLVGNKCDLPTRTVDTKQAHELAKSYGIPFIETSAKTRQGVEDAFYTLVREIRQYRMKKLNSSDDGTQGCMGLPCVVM

Row | SMILES | NRAS/KRAS (ratio of KD value for NRAS to KD value for KRAS) [1] | HRAS/KRAS (ratio of KD value for HRAS to KD value for KRAS) [2]
1 | CCO[C@@H]1C[C@H]2C(=O)NC3(CC(C)(C)C3)C(=O)N(C)[C@@H](C3CCCC3)C(=O)N(C)[C@H](C(=O)N(C)C)CC(=O)N(C)[C@@H](CC(C)C)C(=O)N[C@@H]([C@@H](C)CC)C(=O)N(C)CC(=O)N(C)[C@H]3C/C=C\CCN(C3=O)[C@@H](Cc3ccc(C(F)(F)F)cc3)C(=O)N(C)CC(=O)N[C@@H](CCc3cc(F)c(Cl)c(F)c3)C(=O)N2C1 [PP1761] | A (a compound having 10 or more and less than 20 is denoted as A) | A (a compound having 10 or more and less than 20 is denoted as A)
2 | CCO[C@@H]1C[C@H]2C(=O)NC3(CC(C)(C)C3)C(=O)N(C)[C@@H](C3CCCC3)C(=O)N(C)[C@H](C(=O)N(C)C)CC(=O)N(C)[C@@H](CC3CCC3)C(=O)N[C@@H]([C@@H](C)CC)C(=O)N(C)CC(=O)N(C)[C@H]3C/C=C\CCN(C3=O)[C@@H](Cc3ccc(C(F)(F)F)cc3)C(=O)N(C)CC(=O)N[C@@H](CCc3cc(F)c(Cl)c(F)c3)C(=O)N2C1 [PP1762] | A (a compound having 10 or more and less than 20 is denoted as A) | A (a compound having 10 or more and less than 20 is denoted as A)
3 | CCCN(C)C(=O)[C@@H]1CC(=O)N(C)[C@@H](COC)C(=O)N[C@@H]([C@@H](C)CC)C(=O)N(C)CC(=O)N(C)[C@H]2C/C=C\CCN(C2=O)[C@@H](Cc2ccc(C(F)(F)F)cc2)C(=O)N(C)CC(=O)N[C@@H](CCc2cc(F)c(Cl)c(F)c2)C(=O)N2C[C@H](OCC)C[C@H]2C(=O)NC2(CC(C)(C)C2)C(=O)N(C)[C@@H](C2CCCC2)C(=O)N1C [PP1763] | A (a compound having 10 or more and less than 20 is denoted as A) | A (a compound having 10 or more and less than 20 is denoted as A)
4 | CCCOC[C@H]1C(=O)N[C@@H]([C@@H](C)CC)C(=O)N(C)CC(=O)N(C)[C@H]2C/C=C\CCN(C2=O)[C@@H](Cc2ccc(C(F)(F)F)cc2)C(=O)N(C)CC(=O)N[C@@H](CCc2cc(F)c(Cl)c(F)c2)C(=O)N2C[C@H](OCC)C[C@H]2C(=O)NC2(CC(C)(C)C2)C(=O)N(C)[C@@H](C2CCCC2)C(=O)N(C)[C@H](C(=O)N(C)C)CC(=O)N1C [PP1764] | AA (a compound having 20 or more is denoted as AA) | A (a compound having 10 or more and less than 20 is denoted as A)
5 | CCO[C@@H]1C[C@H]2C(=O)NC3(CCC3)C(=O)N(C)[C@@H](C3CCCC3)C(=O)N(C)[C@H](C(=O)N(C)C)CC(=O)N(CC)[C@@H](CC(C)C)C(=O)N[C@@H]([C@@H](C)CC)C(=O)N(C)CC(=O)N(C)[C@H]3C/C=C\CCN(C3=O)[C@@H](Cc3ccc(C(F)(F)F)cc3)C(=O)N(C)CC(=O)N[C@@H](CCc3cc(F)c(C(F)(F)F)c(F)c3)C(=O)N2C1 [PP1765] | A (a compound having 10 or more and less than 20 is denoted as A) | A (a compound having 10 or more and less than 20 is denoted as A)
6 | CCC[C@H]1C(=O)N[C@@H]([C@@H](C)CC)C(=O)N(CCC)CC(=O)N(C)[C@H]2C/C=C\CCN(C2=O)[C@@H](Cc2ccc(C(F)(F)F)cc2)C(=O)N(C)CC(=O)N[C@@H](CCc2cc(F)c(C(F)(F)F)c(F)c2)C(=O)N2C[C@H](OCC)C[C@H]2C(=O)NC2(CCC2)C(=O)N(C)[C@@H](C2CCCC2)C(=O)N(C)[C@H](C(=O)N(C)C)CC(=O)N1C [PP1767] | A (a compound having 10 or more and less than 20 is denoted as A) | B (a compound having 3 or more and less than 10 is denoted as B)
7 | CCO[C@@H]1C[C@H]2C(=O)NC3(CC(C)(C)C3)C(=O)N(C)[C@@H](C3CCCC3)C(=O)N(CC)[C@H](C(=O)N(C)C)CC(=O)N(C)[C@@H](CC)C(=O)N[C@@H]([C@@H](C)CC)C(=O)N(C)CC(=O)N(C)[C@H]3C/C=C\CCN(C3=O)[C@@H](Cc3ccc(C(F)(F)F)cc3)C(=O)N(C)CC(=O)N[C@@H](CCc3cc(F)c(C(F)(F)F)c(F)c3)C(=O)N2C1 [PP1768] | A (a compound having 10 or more and less than 20 is denoted as A) | A (a compound having 10 or more and less than 20 is denoted as A)
8 | CCC[C@H]1C(=O)N[C@@H]([C@@H](C)CC)C(=O)N(C)CC(=O)N(C)[C@H]2C/C=C\CCN(C2=O)[C@@H](Cc2ccc(C(F)(F)F)cc2)C(=O)N(C)CC(=O)N[C@@H](CCc2cc(F)c(C(F)(F)F)c(F)c2)C(=O)N2C[C@H](OCC)C[C@H]2C(=O)NC2(CCC2)C(=O)N(C)[C@@H](C2CCCC2)C(=O)N(CCC)[C@H](C(=O)N(C)C)CC(=O)N1C [PP1769] | A (a compound having 10 or more and less than 20 is denoted as A) | A (a compound having 10 or more and less than 20 is denoted as A)
9 | CCO[C@@H]1C[C@H]2C(=O)NC3(CC(C)(C)C3)C(=O)N(C)[C@@H](C3CCCC3)C(=O)N(C)[C@H](C(=O)N(C)CC)CC(=O)N(C)[C@@H](CC(C)C)C(=O)N[C@@H]([C@@H](C)CC)C(=O)NCC(=O)N(C)[C@H]3C/C=C\CCN(C3=O)[C@@H](Cc3ccc(C(F)(F)F)cc3)C(=O)N(C)CC(=O)N[C@@H](CCc3cc(F)c(C(F)(F)F)c(F)c3)C(=O)N2C1 [PP1771] | A (a compound having 10 or more and less than 20 is denoted as A) | A (a compound having 10 or more and less than 20 is denoted as A)
10 | CCO[C@@H]1C[C@H]2C(=O)NC3(CC(C)(C)C3)C(=O)N(C)[C@@H](C3CCCC3)C(=O)N(C)[C@H](C(=O)N(C)C)CC(=O)N(CC)[C@@H](CC(C)C)C(=O)N[C@@H]([C@@H](C)CC)C(=O)NCC(=O)N(C)[C@H]3C/C=C\CCN(C3=O)[C@@H](Cc3ccc(C(F)(F)F)cc3)C(=O)N(C)CC(=O)N[C@@H](CCc3cc(F)c(C(F)(F)F)c(F)c3)C(=O)N2C1 [PP1772] | B (a compound having 3 or more and less than 10 is denoted as B) | B (a compound having 3 or more and less than 10 is denoted as B)
11 | CCO[C@@H]1C[C@H]2C(=O)NC3(CC(C)(C)C3)C(=O)N(C)[C@@H](C3CCCC3)C(=O)N(CC)[C@H](C(=O)N(C)C)CC(=O)N(C)[C@@H](CC(C)C)C(=O)N[C@@H]([C@@H](C)CC)C(=O)NCC(=O)N(C)[C@H]3C/C=C\CCN(C3=O)[C@@H](Cc3ccc(C(F)(F)F)cc3)C(=O)N(C)CC(=O)N[C@@H](CCc3cc(F)c(C(F)(F)F)c(F)c3)C(=O)N2C1 [PP1773] | A (a compound having 10 or more and less than 20 is denoted as A) | A (a compound having 10 or more and less than 20 is denoted as A)
12 | CC[C@H](C)[C@@H]1NC(=O)[C@H](CC(C)C)N(C)C(=O)C[C@@H](C(=O)N(C)C)N(C)C(=O)[C@H](C2CCCC2)N(C)C(=O)C2(CC(C)(C)C2)NC(=O)CN(C)C(=O)[C@H](CCc2cc(F)c(C(F)(F)F)c(F)c2)NC(=O)CN(C)C(=O)[C@H](Cc2ccc(C(F)(F)F)cc2)N2CC/C=C\C[C@@H](C2=O)N(C)C(=O)CN(C)C1=O [PP1776] | A (a compound having 10 or more and less than 20 is denoted as A) | A (a compound having 10 or more and less than 20 is denoted as A)

Reference: patent US20250230193A1, “CYCLIC COMPOUND HAVING SELECTIVE KRAS INHIBITORY EFFECT ON HRAS AND NRAS” (CHUGAI SEIYAKU KABUSHIKI KAISHA, priority 2022, published 2025)
